Data on two compounds can be found in ChEMBL document CHEMBL1151857, “A new psoralen derivative with enlarged antiproliferative properties” (Bioorg Med Chem Lett, 2009).

One data set concerns Nucleic Acid. In words: Binding affinity to DNA assessed as intercalation between base pairs by linear flow dichroism spectroscopy. The class given is nucleic-acid assay.
The test system of data set [1] is HeLa. In words: Photo-antiproliferative activity against human HeLa cells under dark condition. Format: functional, cell-based.
For data set [2], the system named is HeLa. In words: Photo-antiproliferative activity against human HeLa cells exposed to 365 nm, 0.793 Jcm'-2 UVA light. The class given is functional, cell-based. The following applies: light or radiation study.
Another data set relates to Zone of skin. In words: Phototoxicity in depilated guinea pig skin assessed as formation of erythema. The class given is tissue-based, Cavia porcellus.

SMILES strings stand for the structures. Calls of active or inactive are those of the source. The calls are words filed in the database; no cut-off is given here.

`CN(C)CCCOc1c2oc(=O)ccc2cc2c1oc1nnccc12`: in the data set on Nucleic Acid, the outcome was Active. In addition, the IC50 stood at 13.5 µM in the data set with HeLa [1] and 2.9 µM in the data set on HeLa [2].
In the case of `COc1c2occc2cc2ccc(=O)oc12` [METHOXSALEN], in the data set on Zone of skin, the Activity entry was “Toxic”. This compound also returned an IC50 with HeLa [1] of more than 20 µM.
